# Patent US20240261237A1, “REDUCING SIDE EFFECTS OF NMDA RECEPTOR ANTAGONISTS” (Seelos Therapeutics, Inc., priority 2021, published 2024)
# Legend:
# [1] = test system: adults with major depressive disorder (MDD) at imminent risk of suicide; experiment: Example 4 Phase 2 study: STS-CMCM risk of suicide at this time; type: in vivo, human
# Description: (§1) The CMCM version of the S-STS (S-STS CMCM) has four parts, and can also provide a comprehensive description of suicidal ideation and behavior. See, e.g., Sheehan et al., Innov. Clin. Neurosci. Vol. 11, No. 9-10, pp. 93-140 (2014) The S-STS CMCM (version 01/01/19) is a clinician-rated outcome measure which assesses SI/B on multiple patient and clinician-rated items. It includes 13 suicidality items that are rated on a Likert-type scale ranging from “not at all” (0) to “extremely” (4), yielding a total score ranging from 0 to 52. The final 6 items are used only when the patient misses a visit and is unable to complete the scale; if that missed visit is due to attempted or completed suicide, the possible maximum score is […]. The CMCM also yields 5 different single-item global assessments: 1) subject-rated likelihood of a suicide attempt; 2) subject-rated treatment needed; 3) clinician global severity of suicidal impulses, thoughts, and behaviors; 4) clinician judgment of suicide risk at this time and level of management needed for suicidality; and 5) clinician judgment of subject's likelihood of making a suicide attempt or of dying by suicide in the next 7 days.
# (§2) The secondary endpoints are the change from baseline at 24 hours, as well as at Day 16, in the following: • (1) PGIS-SI/B (Day 16 only) • (2) S-STS total score (Day 16 only) • (3) CGI of Change in SI/B (CGIC-SI/B) • (4) PGI of Change in SI/B (PGIC-SI/B) • (5) S-STS Clinician-Rated Global Severity of Suicidal Impulses, Thoughts, and Behaviors • (6) S-STS Clinician judgment of subject's risk of a suicide attempt or death by suicide at this time • (7) S-STS Clinician judgment of subject's likelihood (risk) of making a suicide attempt or of dying by suicide in the next 7 days • (8) S-STS Subject-rated global severity of suicidal impulses, thoughts, and behavior • (9) S-STS Subject-rated treatment needed score • (10) MADRS item 10 response rate (response≤3 units) • (11) MADRS response (total score ≥50% reduction from baseline) • (12) MADRS remission (total score ≤12)
# [2] = in vivo; cited from earlier work
# [3] = test system: adults with major depressive disorder (MDD) at imminent risk of suicide; experiment: Example 4 Phase 2 study: adverse events; conditions: in vivo
# [4] = test system: adults with major depressive disorder (MDD) at imminent risk of suicide; experiment: Example 4 Phase 2 study: MADRS Total; type: in vivo, human; conditions: both subjects; 24 hours
# Description: The Montgomery-Åsberg Depression Rating Scale (MADRS) is used to assess the severity of depression among subjects who have a diagnosis of depression. The MADRS includes 10 items and uses a 0 to 6 severity scale, scored following the interview. Higher scores indicate increasing depressive symptoms. Ratings can be added to form an overall score (range 0 to 60); no weights are used. Cut-off points include: 0 to 6—symptom absent, 7 to 19—mild depression, 20 to 34—moderate, 35 to 60—severe depression.
# (§3) MADRS is a diagnostic questionnaire that can be used to measure the severity of a depressive episode in a subject. In some embodiments, the MADRS can be used to measure the severity of depressive symptoms in a subject, for example, a subject suffering from MDD, TRD, bipolar depression, and other psychiatric disorders described herein with a depression component. In some embodiments, the MADRS can be used to measure TRD. In some embodiments, the MADRS can be used to measure other psychiatric disorders, as described herein. […]
# [5] = test system: adults with major depressive disorder (MDD) at imminent risk of suicide; experiment: Example 4 Phase 2 study: STS-CMCM Risk of Suicide at Within the Next 7 Days; type: in vivo, human
# Description: as §1, §2
# [6] = test system: adults with major depressive disorder (MDD) at imminent risk of suicide; experiment: Example 4 Phase 2 study: MADRS item 10 (suicidality); type: in vivo, human; conditions: for MADRS item 10 score: 24 hours post-administration
# Description: as §3
# subjects = conditions: in vivo; cited from earlier work
# [7] = test system: adults with major depressive disorder (MDD) at imminent risk of suicide; experiment: Example 4 Phase 2 study: CADSS (dissociation); conditions: for CADSS change from baseline: at 40 minutes
# [8] = test system: adults with major depressive disorder (MDD) at imminent risk of suicide; experiment: Example 4 Phase 2 study: STS-CMCM total score; type: in vivo, human; conditions: for STS mean score: baseline 21.9; for STS-CMCM score (range 0-52 units): 24 hours post-administration
# Description: The Sheehan Suicidality Tracking Scale (Sheehan-STS, S-STS) is a prospective rating scale that tracks both treatment-emergent suicidal ideation and behaviors. The Sheehan-STS is a scale with 14 core items and nine additional questions contingent on the core responses that can be administered either by a clinician or patient through self-report. Each item in the Sheehan-STS is scored on a 5-point Likert scale (0=not at all, 1=a little, 2-moderately, 3=very, and 4-extremely).
# as §1, §2
# [9] = test system: adults with major depressive disorder (MDD) at imminent risk of suicide; experiment: Example 4 Phase 2 study: MOAA/S (sedation)
# [10] = test system: adults with major depressive disorder (MDD) at imminent risk of suicide; experiment: Example 4 Phase 2 study: C-SSRS; conditions: 24 hours post-administration, baseline yes
structure (smiles),measurement,setting,value
"CNC1(c2ccccc2Cl)CCCCC1=O (racemic) [racemic ketamine, (R)-2-(2-chlorophenyl)-2-(methylamino)cyclohexanone and (S)-2-(2-chlorophenyl)-2-(methylamino)cyclohexanone]",STS-CMCM score (range 0-9; risk of suicide at this time),"[1]; Subject 1, 24 hours post-administration, baseline 7 units",3 units
same,STS-CMCM score (range 0-9; risk of suicide at this time),"[1]; Subject 1, Day 9",2 units
same,STS-CMCM score (range 0-9; risk of suicide at this time),"[1]; Subject 2, 24 hours post-administration, from 7 units",3 units
same,STS-CMCM score (range 0-9; risk of suicide at this time),"[1]; Subject 2, Day 9",zero
same,STS-CMCM score (range 0-9; risk of suicide at this time),"[1]; both subjects, Day 8",2 units
same,antidepressant properties,[2],exhibit antidepressant properties
same,serious adverse events,[3],no serious adverse events were observed
same,reduction of MADRS Total,[4],> 50%
same,STS-CMCM Risk of Suicide at Within the Next 7 Days score,"[5]; Subject 1, 24 hours post-administration, from 5 units",2 units
same,STS-CMCM Risk of Suicide at Within the Next 7 Days score,"[5]; Subject 2, 24 hours post-administration, baseline 7 units",1 unit
same,STS-CMCM Risk of Suicide at Within the Next 7 Days score,[5]; the scores on Day 4,1 unit
same,STS-CMCM Risk of Suicide at Within the Next 7 Days score,[5]; the scores on Day 8,0 units
same,MADRS item 10 score,"[6]; Subject 1, baseline 5 units",0 units
same,MADRS item 10 score,"[6]; second subject (not named), baseline 5 units pre-dose",0 units
same,sustained response (MADRS Item 10) after the final administration,[6]; with SOC,15 days
same,movement during the anesthetic recovery phase / locomotor activity,subjects,increased movement during the anesthetic recovery phase
same,subjects with no dissociation (CADSS),"[7]; Days 1 and 4, 7 subjects",four of the 7
same,subjects reporting dissociation,"[7]; after Day 4 (on Day 11 at 40 minutes), 7 subjects",1
same,CADSS change from baseline,[7]; Day 4 (after second dose),2.3
same,CADSS change from baseline,[7]; Day 8 (after third dose),0.4
same,CADSS change from baseline,[7]; after first dose,3.8
same,sedation or dissociation,[7]; entire patient cohort to the Day 29/30 endpoint,no clinically meaningful sedation or dissociation
same,patients with >14 points within-patient change from baseline in STS,[8]; Day 1,94%
same,patients with 4 points within-patient change in STS,"[8]; Day 1, 1 patient",6%
same,STS mean score,[8]; Day 1,1.7
same,STS mean score,[8]; Day 16,0.0
same,STS mean score,[8]; Day 29,0.0
same,STS-CMCM score (range 0-52 units),"[8]; Subject 1, from 18 units",zero
same,STS-CMCM score (range 0-52 units),"[8]; Subject 2, from 22 units",3 units
same,MOAA/S score of the 1 subject with a score <5 units on subsequent dosing days,[9]; 6-hour time-point on Day 4,4 units
same,subjects with MOAA/S score of 5 units at all time-points,"[9]; Day 1, 7 subjects",5 of 7
same,"MOAA/S score, all subjects","[9]; Day 1, no one below",≥ 4 units
same,C-SSRS score for suicidal ideation (yes or no),[10]; Subject 1,no
same,C-SSRS score for suicidal ideation (yes or no),[10]; Subject 2,no
NC1(c2ccccc2Cl)CCCC(O)C1=O (stereo not shown) [6-hydroxynorketamine],antidepressant properties,[2],exhibit antidepressant properties
same,movement during the anesthetic recovery phase / locomotor activity,subjects,no anesthetic or locomotor activity
NC1(c2ccccc2Cl)CCCCC1=O (stereo not shown) [norketamine],movement during the anesthetic recovery phase / locomotor activity,subjects,increased movement during the anesthetic recovery phase
